Test results taken from patent US20250108038A1 (priority 2023, published 2025).
Read-outs that look alike come from different tables or passages of the source.

Columns and labels:
[1] = biological target: CYP3A4 (Homo sapiens, UniProt P08684); settings: for Inhibition at Highest Test Article Concentration: 3A4, at 50 μM; for IC50: pooled human liver microsomes, 30 min
[2] = biological target: T1, CYP1A2 (Homo sapiens, UniProt P05177)
T1 sequence (P05177 1-516): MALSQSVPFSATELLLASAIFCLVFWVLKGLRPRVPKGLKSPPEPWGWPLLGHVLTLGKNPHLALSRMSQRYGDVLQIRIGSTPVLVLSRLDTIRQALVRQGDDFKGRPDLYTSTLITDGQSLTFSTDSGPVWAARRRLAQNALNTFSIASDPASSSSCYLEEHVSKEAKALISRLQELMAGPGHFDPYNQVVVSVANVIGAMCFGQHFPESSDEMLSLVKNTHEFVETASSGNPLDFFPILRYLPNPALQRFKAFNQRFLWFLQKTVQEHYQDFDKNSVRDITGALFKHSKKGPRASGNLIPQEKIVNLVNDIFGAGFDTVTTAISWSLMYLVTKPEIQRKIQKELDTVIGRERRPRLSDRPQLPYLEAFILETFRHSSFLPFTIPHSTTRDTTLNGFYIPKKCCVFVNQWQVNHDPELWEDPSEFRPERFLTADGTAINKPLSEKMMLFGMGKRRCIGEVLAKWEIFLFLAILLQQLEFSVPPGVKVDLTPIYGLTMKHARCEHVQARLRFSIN

[3] = system: Wistar rats; test: Five Choice Serial Reaction Time Task, standard version (STD), repeated administration; assay type: in vivo, Wistar rat; design: Latency (Correct) / Latency (Incorrect): unit not given here; settings: for Latency (Correct) / Latency (Incorrect) / Magazine Head Entries / Omissions / Reward Latency / Trials Completed: STD
From the text: The behavioral tasks utilized were three versions of the rat Five Choice Serial Reaction Time Task (5C-SRTT), the standard version of the task (STD) with a fixed stimulus duration and a fixed intertrial interval, the variable stimulus duration (vSD) and the variable intertrial interval (vITI) version. The principal readout parameters in each task were the % Hit and the % correct choices (measures of sustained attention) and three measures of inhibitory response control (premature, perseverative, and timeout responses), although a number of additional outcome measures were obtained (see under Methods and Results below).
Twenty-four adult (approx. 10 months old) male Wistar rats (Envigo, Inc, Indianapolis, IN) were used in the study. […] Subjects were double housed in polycarbonate cages (45×30×18 cm) with corncob bedding in a vivarium of constant temperature (21-23° C.) and humidity (40-50%). […] All behavioral testing was performed during the light portion (9 a.m.-5 p.m.) of the light/dark cycle (Monday thru Friday). Animals were cared for in accordance with the Guide for the Care and Use of Laboratory Animals (U.S. National Institutes of Health) and the experimental protocols were approved by the Institutional Animal Care and Use Committee at Augusta University (Protocol #2010-0044).
The 5C-SRTT procedure (reviewed, Robbins, 2002. Psychopharmacology (Berl); 163(3-4):362-80) was conducted as we have described previously (Terry et al., 2014, Neurotoxicology and Teratology 44:18-29, 2014; Callahan et al., 2020, Neuropharmacology. August 15; 173:107994). […] Animals were trained in eight automated 5C-SRTT operant chambers (Med Associates, St. Albans, VT, USA), controlled by MedPC software (Med Associates). Briefly, each operant chamber was equipped with 5 apertures containing a photocell beam to detect nose pokes and a lamp (2.8 W) that could be illuminated randomly at varying durations. Food pellets (45 mg chow pellet, BioServ, Frenchtown, NJ, USA) were delivered automatically to a magazine, located on the opposite wall to the nose pokes, that was also equipped with a light that turned on to indicate that a pellet had been dispensed. The house-light remained on for the entire session unless an error or omission occurred. Training sessions began with the delivery of a food reward and retrieval triggered the first trial. […] Sessions ended when 40 minutes had lapsed or 100 trials had been completed.
For this study, subjects were re-trained 5 days per week until they re-established a stable performance criteria with a fixed (1.0 sec) stimulus duration and a fixed ITI (5 sec) of 70-75% accuracy, <20% omissions and completion of all 100 trials for 5 consecutive days. Upon meeting these performance criteria animals were trained for one additional week and two groups of subjects (N=12) were assembled and balanced according to their performance accuracy, specifically the % Hit evaluation, which takes into account correct responses as well as all incorrect responses including the number of omissions. […] The vSD version of the task increases the attentional load while the vITI increases impulsivity-like behavior. The following outcome measures and behavioral domains were assessed: % Hit and % correct=sustained attention; omissions=attention/motivation; premature responses=impulsivity; perseverative responses=compulsivity; timeout responses=cognitive inflexibility; magazine head entries=appetitive motivation and compulsivity-like behavior; response latencies=information processing speed and/or motivation. For the STD version of the task, the stimulus duration (SD) was fixed at 1.0 sec and the ITI was fixed at 5 sec. In the vSD version of the task the following stimulus durations were presented in a pseudorandom manner: 0.3, 0.6, and 0.9 sec. In the vITI version, 2.5, 5.0, and 10.0 sec ITIs were employed in a pseudorandom manner. […]

[4] = biological target: CYP2D6 (Homo sapiens, UniProt P10635)
[5] = biological target: CYP2C9 (Homo sapiens, UniProt P11712)
[6] = pooled human liver microsomes, 30 min
[7] = Group 1, 0.1 mg/kg, Drug Exp period, mean ± SEM
[8] = Group 1, 0.1 mg/kg, Post-Drug Exp (vehicle washout) period, mean ± SEM
[9] = Group 2, 0.3 mg/kg, Drug Exp period, mean ± SEM
[10] = Group 2, 0.3 mg/kg, Post-Drug Exp (vehicle washout) period, mean ± SEM

Chain of CYP3A4 (P08684 whole entry): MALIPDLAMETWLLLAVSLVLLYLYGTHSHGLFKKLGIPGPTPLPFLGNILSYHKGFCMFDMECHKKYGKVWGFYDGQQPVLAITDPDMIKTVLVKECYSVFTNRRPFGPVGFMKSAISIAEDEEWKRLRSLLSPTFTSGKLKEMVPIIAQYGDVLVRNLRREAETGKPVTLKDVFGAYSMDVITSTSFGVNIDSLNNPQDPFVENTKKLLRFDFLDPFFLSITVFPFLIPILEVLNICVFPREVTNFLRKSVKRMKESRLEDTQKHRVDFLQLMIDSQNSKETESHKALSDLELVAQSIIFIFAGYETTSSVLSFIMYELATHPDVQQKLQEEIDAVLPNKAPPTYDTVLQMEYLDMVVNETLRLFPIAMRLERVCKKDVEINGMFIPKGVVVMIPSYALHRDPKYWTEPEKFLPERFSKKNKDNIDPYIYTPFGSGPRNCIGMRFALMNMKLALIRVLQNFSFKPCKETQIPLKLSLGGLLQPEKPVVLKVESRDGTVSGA
Chain of CYP2D6 (P10635 whole entry): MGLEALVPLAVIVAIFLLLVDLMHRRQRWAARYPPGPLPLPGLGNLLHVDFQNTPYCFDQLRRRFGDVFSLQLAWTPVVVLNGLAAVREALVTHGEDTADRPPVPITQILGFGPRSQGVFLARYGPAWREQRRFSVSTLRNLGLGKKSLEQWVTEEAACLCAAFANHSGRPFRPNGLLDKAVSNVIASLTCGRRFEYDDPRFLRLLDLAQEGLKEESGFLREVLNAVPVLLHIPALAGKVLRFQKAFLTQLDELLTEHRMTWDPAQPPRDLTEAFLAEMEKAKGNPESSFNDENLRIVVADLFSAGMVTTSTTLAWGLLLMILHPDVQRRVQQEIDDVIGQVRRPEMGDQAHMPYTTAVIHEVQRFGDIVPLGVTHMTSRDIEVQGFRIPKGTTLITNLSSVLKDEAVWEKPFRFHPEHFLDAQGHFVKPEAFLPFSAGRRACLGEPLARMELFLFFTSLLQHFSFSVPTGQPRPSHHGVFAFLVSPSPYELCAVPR
Chain of CYP2C9 (P11712 whole entry): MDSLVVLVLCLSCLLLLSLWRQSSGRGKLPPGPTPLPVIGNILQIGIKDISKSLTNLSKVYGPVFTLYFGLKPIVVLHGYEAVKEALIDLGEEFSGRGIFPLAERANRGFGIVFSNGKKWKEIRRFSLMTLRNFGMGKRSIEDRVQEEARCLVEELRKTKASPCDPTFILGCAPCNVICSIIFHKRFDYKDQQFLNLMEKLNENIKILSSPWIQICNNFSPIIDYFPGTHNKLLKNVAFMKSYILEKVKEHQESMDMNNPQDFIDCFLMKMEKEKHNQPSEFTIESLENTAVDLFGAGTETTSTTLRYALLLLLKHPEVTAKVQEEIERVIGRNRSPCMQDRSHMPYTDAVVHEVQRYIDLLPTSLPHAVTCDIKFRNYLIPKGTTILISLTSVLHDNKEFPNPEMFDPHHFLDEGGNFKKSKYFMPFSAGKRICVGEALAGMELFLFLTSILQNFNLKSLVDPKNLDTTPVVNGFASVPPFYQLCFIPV

Clc1ccc(C2(OCC3OCCO3)c3ccccc3C3=NCCN32)cc1 (stereo not shown) [Compound I-19]
Inhibition at Highest Test Article Concentration ([1]; Midazolam): 28.4 at 50 μM % | Inhibition at Highest Test Article Concentration ([1]; Testosterone): 57.5 at 50 μM % | IC50 ([1]; substrate midazolam): did not inhibit | IC50 ([1]; substrate testosterone): did not inhibit | Inhibition at Highest Test Article Concentration ([2]; 1A2, Phenacetin, at 50 μM): 18.2 at 50 μM % | IC50 [2, 6]: did not inhibit | Latency (Correct) [3, 7]: 0.94 | Latency (Incorrect) [3, 7]: 2.15 | Magazine Head Entries [3, 7]: 150.65 ± 9.46 | Omissions [3, 7]: 9.43 | Reward Latency [3, 7]: 3.53 | Trials Completed [3, 7]: 96.99 ± 2.12 | Latency (Correct) [3, 8]: 0.87 ± 0.03 | Latency (Incorrect) [3, 8]: 1.86 ± 0.09 | Magazine Head Entries [3, 8]: 168.06 ± 13.60 | Omissions [3, 8]: 4.46 ± 0.81 | Reward Latency [3, 8]: 2.64 | Trials Completed [3, 8]: 97.65 ± 2.23 | Latency (Correct) [3, 9]: 0.92 | Latency (Incorrect) [3, 9]: 2.28 | Magazine Head Entries [3, 9]: 183.89 ± 32.19 | Omissions [3, 9]: 8.10 ± 2.32^+ | Reward Latency [3, 9]: 4.08 | Trials Completed [3, 9]: 98.44 ± 0.95 | Latency (Correct) [3, 10]: 0.78 | Latency (Incorrect) [3, 10]: 1.61 ± 0.07 | Magazine Head Entries [3, 10]: 211.72 ± 32.77 | Omissions [3, 10]: 3.26 ± 0.95 | Reward Latency [3, 10]: 2.27 | Trials Completed [3, 10]: 100.00 | % Hit and % correct ([3]; repeated 0.1 and 0.3 mg/kg IP): did not significantly affect either the % Hit or the % correct | premature responses ([3]; repeated 0.1 and 0.3 mg/kg IP): reduced the number of premature responses compared to pre- and post-drug conditions | Omissions ([3]; repeated 0.1 and 0.3 mg/kg IP, vSD and vITI versions): modest increases in the number of omissions | Inhibition at Highest Test Article Concentration ([4]; 2D6, Dextromethorphan, at 50 μM): 84.3 at 50 μM % | IC50 ([4]; microsomes): 8.7 µM | Inhibition at Highest Test Article Concentration ([5]; 2C9, Diclofenac, at 50 μM): 53.3 at 50 μM % | IC50 [5, 6]: did not inhibit
